Patent publication US8188109B2, “Benzoquinolizinium salt derivatives as anticancer agents” (Naxospharma S.r.l., priority 2009, dated 2012)
Where two headings read alike, the source gives them in different places.

Tests used:
[1] = system: human ovarian cancer cell line A2780; assay: Cell growth assay (crystal violet dye), A2780 cells; format: cell-based; conditions: 72 hrs exposure, read-out: IC50 (cell growth inhibition)
Protocol: (§1) The human ovarian cancer cell line A2780 and a platinum-resistant subline selected in vitro by stepwise increases of cisplatin concentration in the medium were from University of Modena and Reggio Emilia. The cisplatin resistant A2780 cells were challenged weekly with 50 uM cisplatin for 1 hr. Both cell lines were maintained in RPMI 1640 medium with 10% (vol/vol) fetal calf serum, penicillin (62.9 mg/L), and streptomycin (100 mg/L) (GIBCO).
(§2) Cell growth assay. Cell growth was determined by a modification of the crystal violet dye assay (Analytical biochemistry, 182, 16 1989). On selected days, after removal of the tissue culture medium, the cell monolayer was fixed with methanol prior to staining with 0.2% crystal violet solution in 20% methanol for at least 30 minutes. After washing several times with distilled water to remove the dye excess, the cells were let to dry. The incorporated dye was solubilized in acidic isopropanol (1N HCl : 2-propanol, 1:10). After appropriate dilution, dye was determined spectrophotometrically at 540 nm. The extracted dye was proportional to cell number. Percentage of cytotoxicity was calculated by comparing the absorbance of cultures exposed to the compounds of the invention to non-exposed (control) cultures. Percentage of cytotoxicity is here reported as the half maximal inhibitory concentration (IC50), which is a measure of the effectiveness of a compound of the invention in inhibiting cell growth by half with respect to control (100%).

[2] = system: cisplatin resistant A2780 cells (A2780/CP); assay: Cell growth assay (crystal violet dye), A2780/CP cells; format: cell-based, human; conditions: 72 hrs exposure, read-out: IC50 (cell growth inhibition)
Protocol: as §1, §2

[3] = system: 2008 cell line (serous cystadenocarcinoma of the ovary); assay: Cell growth assay (crystal violet dye), 2008 cells; format: cell-based, human; conditions: read-out: IC50 (cell growth inhibition)
Protocol: (§3) For the determination of the in vitro antitumour activities, the compounds of the invention were assayed in a panel of sensible, resistant and refractary tumour cell lines, which are only exemplary for the antitumour activity of the inventive compounds, and are not to be construed as limiting their antitumour activities only to the cell lines set forth herein. Cell lines. The 2008 cell line was established from a patient with serous cystadenocarcinoma of the ovary and the cDDP-resistant C13* subline, about 15-fold resistant to cDDP, was derived from the parent 2008 cell line by monthly exposure to cDDP, followed by chronic exposure to step-wise increases in cDDP concentration (Cancer Research 52, 1895, 1992). The cell lines were grown as monolayers in RPMI 1640 medium containing 10% heat-inactivated fetal bovine serum and 50 μg/mL gentamycin sulfate. All cell media and serum were purchased from (Lonza, Verviers, Belgium). Cultures were equilibrated with humidified 5% CO2 in air at 37° C. All studies were performed in Mycoplasma negative cells, as routinely determined with the MycoAlert Mycoplasma detection kit (Lonza, Walkersville, Md., USA).
as §2

[4] = system: cDDP-resistant C13* subline; assay: Cell growth assay (crystal violet dye), C13* cells; format: cell-based, human; conditions: read-out: IC50 (cell growth inhibition)
Protocol: as §3, §2

HeLa cells = assay: Cell proliferation MTT assay, HeLa; format: cell-based; conditions: Homo sapiens, 24 h, read-out: MTT cell proliferation, percentage compared to control cells considered as 100%; for activity at 1 µM: compound at 1 uM; for activity at 10 µM: compound at 10 uM
Protocol: (§4) Cell cultures and treatments. Human tumor cells (HeLa from uterin cervix and HCT116 from colon carcinoma) were grown at 37° C. in humidified atmosphere containing 5% CO2 in D-MEM supplemented with 10% FCS, 4 mM glutamine, 2 mM Na pyruvate, 100 U/mL penicillin and 0.1 mg/mL streptomycin (all reagents were from Celbio, Pero, Italy). HeLa cells are the most widely used human tumor cell line; HCT 116 colon carcinoma cell line has proven to be extremely resistant to conventional chemotherapy. Cells were treated with the compounds of the invention at a fixed dose of 10 uM for 24 h, eventually followed by 24 of recovery in drug free medium. As a positive control of growth inhibition, cells were treated with 10 uM etoposide. Some of the inventive were also assayed at a dose of 1 uM.
(§5) Cell proliferation assays—MTT assay. Cells are seeded in 96 multiwell-plates at the density of 10^3/100 μl (except fibroblasts that are seeded at the density of 1.5×10^3/100 μl). Cells are treated 24 h later with the drug for 24 h eventually followed by 24 h of recovery in drug-free medium. At the end of the treatments, 20 μl of CellTiter 96 Non-Radioactive Cell Proliferation Assay (MTT; Promega, Milano, Italy) are added to each well. Plates are then incubated for 4 h at 37° C. in the dark and analyzed with a reader of microplates (Gio. De Vita, Roma, Italy) at 492 nm. Experiments are performed in quadruplicate and repeated three times. Data are expressed in the following Tables 2a-c as the percentage compared to control cells considered as 100%.

[5] = system: HCT 116 colon carcinoma cell line; assay: Cell proliferation MTT assay, HCT 116; format: cell-based; conditions: Homo sapiens, HCT-116, 24 h, read-out: MTT cell proliferation, percentage compared to control cells considered as 100%; for activity at 1 µM: HCT 116, compound at 1 uM, 24 h exposure; for activity at 10 µM: HCT 116, compound at 10 uM
Protocol: as §4, §5

tumour cell lines = assay: In vitro antitumour activity, panel of tumour cell lines (statement in words); format: cell-based, human; conditions: compared with the novel compounds / prior art protoberberines
Protocol: as §3

[6] = Homo sapiens, 2008 cells, 72 hrs exposure
[7] = Homo sapiens, C13* cells, 72 hrs exposure
[8] = 24 h + 24 h recovery in drug-free medium

Compound | IC50 ([1]; Homo sapiens) | IC50 ([2]; Homo sapiens, A2780C/P) | IC50 [3, 6] | IC50 [4, 7] | activity at 1 µM (HeLa cells; [8]) | activity at 1 µM (HeLa cells) | activity at 10 µM (HeLa cells; [8]) | activity at 10 µM (HeLa cells) | activity at 1 µM [5] | activity at 10 µM [5, 8] | activity at 10 µM ([5]; 24 h) | antitumour activity (in words) (tumour cell lines) | IC50 ([3]; Homo sapiens, 72 h) | IC50 ([4]; Homo sapiens, C13, 72 h) | IC50 ([3]; 2008 cells, 72 hrs exposure) | IC50 ([4]; C13* cells, 72 hrs exposure) | IC50 [1] | IC50 [2]
COc1ccc2c(Cc3ccccc3)c3[n+](cc2c1OC)CCc1cc2c(cc1-3)OCO2.[I-] [Comp Ex, 13-benzyl-9,10-dimethoxy-5,6-dihydrobenzo[g]-1,3-benzodioxolo[5,6-a]quinolizinium iodide, reference compound] | 2.5 µM | 3.3 µM | 9.2 µM | 5 µM | 93.6% | 139% | 74.5% | 98% | 119% | 22.2% | 20.4% | much lower antitumour activity |  |  |  |  |  | 
COc1ccc2cc3[n+](cc2c1OC)CCc1cc2c(cc1-3)OCO2 [Berberine, 9,10-dimethoxy-5,6-dihydrobenzo[g]-1,3-benzodioxolo[5,6-a]quinolizinium chloride, reference compound] | 4 µM | 2.5 µM |  |  | 168% | 178% | 92.9% | 121% | 201% | 93.3% | 166% |  | 10 µM | 6 µM |  |  |  | 
COc1ccc2c(CCc3c[nH]c4ccccc34)c3[n+](cc2c1OC)CCc1cc2c(cc1-3)OCO2 [NAX019, 13-[2-(indol-3-yl)ethyl]-9,10-dimethoxy-5,6-dihydrobenzo[g]-1,3-benzodioxolo[5,6-a]quinolizinium iodide] |  |  |  |  |  |  | 33.5% | 62.8% |  | 32.1% | 6% |  |  |  |  |  |  | 
O=c1[nH]cc(F)c(=O)[nH]1 [5-FU, 5-fluoro-2,4(1H,3H)-pyrimidinedione, reference compound] |  |  | 10 µM | 8 µM |  |  |  |  |  |  |  |  |  |  |  |  |  | 
COc1cc([C@@H]2c3cc4c(cc3[C@@H](O[C@@H]3O[C@@H]5CO[C@@H](C)O[C@H]5[C@H](O)[C@H]3O)[C@H]3COC(=O)[C@H]23)OCO4)cc(OC)c1O [Etoposide, 4′-demethylepipodophyllotoxin 9-[4,6-O-ethylidene-beta-D-glucopyranoside], reference compound] |  |  |  |  | 59.5% | 94.3% | 1% | 74.8% | 139% | 96.2% | 104% |  |  |  |  |  |  | 
N.N.[Cl][Pt][Cl] [cDDP, cis-diaminedichloroplatinum, reference compound] |  |  |  |  |  |  |  |  |  |  |  |  |  |  | 3.6 µM | 17 µM | 2 µM | 20 µM

Second part, led by results:

IC50 ([1]; Homo sapiens) | IC50 ([2]; Homo sapiens, A2780C/P) | IC50 [3, 6] | Compound | IC50 [4, 7] | activity at 1 µM (HeLa cells; [8]) | activity at 1 µM (HeLa cells) | activity at 10 µM (HeLa cells; [8]) | activity at 10 µM (HeLa cells) | activity at 1 µM [5] | activity at 10 µM [5, 8] | activity at 10 µM ([5]; 24 h) | antitumour activity (in words) (tumour cell lines) | IC50 ([3]; Homo sapiens, 72 h) | IC50 ([4]; Homo sapiens, C13, 72 h) | IC50 ([3]; 2008 cells, 72 hrs exposure) | IC50 ([4]; C13* cells, 72 hrs exposure) | IC50 [1] | IC50 [2]
4.5 µM | 2.5 µM |  | COc1ccc2c(CC(=O)n3ccc4cc(Cl)ccc43)c3[n+](cc2c1OC)CCc1cc2c(cc1-3)OCO2 [NAX030, 13-[(5-chloroindol-1-yl)carbonylmethyl]-9,10-dimethoxy-5,6-dihydrobenzo[g]-1,3-benzodioxolo[5,6-a]quinolizinium iodide] |  |  |  |  |  |  |  |  |  |  |  |  |  |  | 
1 µM | 1 µM | 6.6 µM | COc1ccc(CCc2c3[n+](cc4c(OC)c(OC)ccc24)CCc2cc4c(cc2-3)OCO4)cc1 [NAX013, 13-[2-(4-methoxyphenyl)ethyl]-9,10-dimethoxy-5,6-dihydrobenzo[g]-1,3-benzodioxolo[5,6-a]quinolizinium iodide] | 2.4 µM |  |  | 60.8% | 74.5% | 58.1% | 60.2% | 10% |  |  |  |  |  |  | 
0.4 µM | 1 µM | 4 µM | COc1ccc2c(CCC(c3ccccc3)c3ccccc3)c3[n+](cc2c1OC)CCc1cc2c(cc1-3)OCO2 [NAX018, 13-(3,3-diphenylpropyl)-9,10-dimethoxy-5,6-dihydrobenzo[g]-1,3-benzodioxolo[5,6-a]quinolizinium iodide] | 0.66 µM | 45.8% | 64% | 11.3% | 40.6% | 68.2% | 13.7% | 30.6% |  |  |  |  |  |  | 
1.4 µM | 1 µM | 5.8 µM | COc1ccc2c(CCc3ccc(Cl)cc3)c3[n+](cc2c1OC)CCc1cc2c(cc1-3)OCO2 [NAX014, 13-[2-(4-chlorophenyl)ethyl]-9,10-dimethoxy-5,6-dihydrobenzo[g]-1,3-benzodioxolo[5,6-a]quinolizinium iodide] | 1.8 µM | 59.4% | 92.1% | 45.4% | 71.9% |  | 15.4% | 49.5% |  |  |  |  |  |  | 
0.6 µM | 0.6 µM | 3.6 µM | COc1ccc2c(CCCc3ccccc3)c3[n+](cc2c1OC)CCc1cc2c(cc1-3)OCO2 [NAX012, 13-(3-phenylpropyl)-9,10-dimethoxy-5,6-dihydrobenzo[g]-1,3-benzodioxolo[5,6-a]quinolizinium iodide] | 2.2 µM |  |  | 41.3% | 72.4% | 52.1% | 34.8% | 0% |  |  |  |  |  |  | 
